Assay [1] deals with T1, full-length MALT1 protein His-MALT1(1-824) (Homo sapiens, UniProt Q9UDY8).
T1 construct: full-length MALT1 protein His-MALT1(1-824); His (N); made in house; host or cells: baculovirus-infected insect cells
T1 sequence (Q9UDY8 1-824): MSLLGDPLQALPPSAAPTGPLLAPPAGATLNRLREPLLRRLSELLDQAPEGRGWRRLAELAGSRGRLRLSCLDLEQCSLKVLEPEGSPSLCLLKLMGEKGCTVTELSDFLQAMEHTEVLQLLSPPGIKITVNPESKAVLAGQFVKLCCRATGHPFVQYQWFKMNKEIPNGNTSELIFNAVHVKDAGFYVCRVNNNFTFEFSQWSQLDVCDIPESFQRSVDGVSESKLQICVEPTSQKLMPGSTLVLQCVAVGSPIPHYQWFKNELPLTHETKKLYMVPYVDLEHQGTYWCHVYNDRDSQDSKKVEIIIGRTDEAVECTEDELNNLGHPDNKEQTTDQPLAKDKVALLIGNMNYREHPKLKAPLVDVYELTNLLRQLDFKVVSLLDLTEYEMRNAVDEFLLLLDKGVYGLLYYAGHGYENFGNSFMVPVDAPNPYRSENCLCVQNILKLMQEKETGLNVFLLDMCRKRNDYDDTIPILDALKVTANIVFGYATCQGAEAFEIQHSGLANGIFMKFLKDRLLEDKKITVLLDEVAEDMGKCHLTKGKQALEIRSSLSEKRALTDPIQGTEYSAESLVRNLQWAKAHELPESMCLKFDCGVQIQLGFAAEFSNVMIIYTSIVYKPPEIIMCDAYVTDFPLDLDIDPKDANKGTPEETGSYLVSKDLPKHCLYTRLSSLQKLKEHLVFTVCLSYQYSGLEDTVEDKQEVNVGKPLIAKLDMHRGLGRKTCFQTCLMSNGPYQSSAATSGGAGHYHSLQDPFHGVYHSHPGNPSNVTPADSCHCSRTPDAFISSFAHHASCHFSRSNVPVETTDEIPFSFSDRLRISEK
Put plainly: MALT1 protease assay, Assay 1 (2 nM MALT1, Ac-LRSR-AMC substrate). The assay is classed as biochemical. The following applies: 2 nM MALT1, 50 μM Ac-LRSR-AMC, 2 h pre-incubation, 8 hr incubation at RT. On the procedure: MALT1 protease activity was assessed in an in vitro assay using a tetrapeptide as substrate and full-length MALT1 protein His-MALT1(1-824) purified from baculovirus-infected insect cells. The tetrapeptide substrate is Ac-LRSR-AMC (SM Biochemicals) with Km measured at around 100 μM.
The final assay buffer includes 1 nM (Assay 2) or 2 nM (Assay 1) of MALT1 full-length protein, 50 μM Ac-LRSR-AMC substrate, 50 mM Tris pH 7.5, 600 mM Sodium Citrate, 1 mM DTT, 1 mM EDTA, and 0.05% BSA in 384-well plate format using black microtiter square well plates (Optiplate 384-F, Perkin Elmer).
Test compounds were dissolved in 100% DMSO at stock of 10 mM, with final DMSO concentration 0.1%. Test compounds were pre-incubated with MALT1 protein for 2 h at room temperature. Substrate was added after the pre-incubation and fluorescence signal was measured using Envision at excitation 355 nm and emission 460 nm after 8 hr incubation at RT. Increase in the assay signal was linear over this period and proportional with increase in the enzyme content.
The fluorescence units were transformed to percentage of remaining activity by using the high control (HC, median of fluorescence signal from wells containing MALT1 protein, substrate, and DMSO) and low control (LC, median of fluorescence signal from wells with substrate only) with the formula below: […]
IC50 and Hill coefficients were obtained using Graph Pad Prism (Graph Pad software, Inc, USA) with non-linear regression analysis.

In assay [2] the target is T1, full-length MALT1 protein His-MALT1(1-824). Put plainly: MALT1 protease assay, Assay 2 (1 nM MALT1, Ac-LRSR-AMC substrate). The assay is classed as biochemical. The note with it: 1 nM MALT1, 50 μM Ac-LRSR-AMC, 2 h pre-incubation, 8 hr incubation at RT. The method in brief:
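Full-length His-MALT1(1-824) from baculovirus-infected insect cells, pre-incubated with compound 2 h at RT (0.1% DMSO). Then 50 μM Ac-LRSR-AMC added. Buffer was Tris pH 7.5 with 600 mM sodium citrate, DTT, EDTA and BSA. Fluorescence (ex 355/em 460 nm) was read after 8 h at RT and normalized to high/low controls. IC50 from non-linear regression.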

The test system of assay [3] is IL10 secretion in OCI-LY10 cells. In words: Human IL10 secretion assay, Assay 2 (MSD). The assay is classed as cell-based. The following applies: Homo sapiens, 24 h incubation, Meso Scale Discovery, read-out: IL-10 Secretion IC50 [nM] Assay 2. As for the experimental part:
IL10 is one of the cytokines that are regulated via activation of NF-kB signaling. For example, in ABC-DLBCL cell lines, the activated NF-kB signaling leads to increased IL10 secretion. Inhibition of NF-kB signaling has been shown leading to decreased IL10 secretion.
Assay 2: OCI-LY10 cells were seeded in IMEM supplemented with 20% fetal bovine serum at 4.8×10^5 cells per 160 μL per well in 96-well V-bottom cell culture plates (corning, 3894), treated with 120 nL of 3-fold serial compound dilutions, starting at 4 mM. The final vehicle concentration was 0.075% DMSO in all wells. After a 24 h incubation, human IL-10 precoated plates (Meso Scale Discovery) were washed 3 times with PBST, and 50 μL culture medium was aspirated into the MSD plate and incubated at 4° C. overnight. The supernatant was then discarded, and the wells were washed 3 times with PB ST. SULFO-TAG Anti-human IL-10 Antibody (50×) was diluted 50-fold according to the Meso Scale Protocol, then 25 μL of SULFO-TAG Anti-human IL-10 Antibody (1×) was added. After 2 h of incubation at RT, the supernatant was discarded, and the well was washed 3 times with PBST. 2×read buffer was added and the signal was read on an MSD Sector S600. The effect of a particular compound on IL10 secretion is shown relative to the effect of DMSO; set as 100%. IC50 values (nM) were determined using 4-parametric curve-fitting.

One may read the IC50 as the concentration that inhibits the measured activity by half. In assay [1], `CC1(C)C[C@H](C(=O)Nc2cnc([C@@H]3CCCO3)c(Cl)c2)c2cnc3cc(Cl)nn3c21` (single isomer, unassigned) [Example 28, 2-chloro-N-(5-chloro-6-(tetrahydrofuran-2-yl)pyridin-3-yl)-8,8-dimethyl-7,8-dihydro-6H-cyclopenta[e]pyrazolo[1,5-a]pyrimidine-6-carboxamide] came in with an IC50 of 100 to 1000 nM.
Still for that read-out and setting: the same measure for `CC1(C)C[C@@H](C(=O)Nc2cnc(-n3ncc(CO)n3)c(Cl)c2)c2cnc3cc(Cl)nn3c21` (single isomer, unassigned) [Example 30, 2-chloro-N-(5-chloro-6-(4-(hydroxymethyl)-2H-1,2,3-triazol-2-yl)pyridin-3-yl)-8,8-dimethyl-7,8-dihydro-6H-cyclopenta[e]pyrazolo[1,5-a]pyrimidine-6-carboxamide]: not below 1000 nM; for `CC1(C)C[C@@H](C(=O)Nc2cnc(-n3nccn3)c(Cl)c2)c2cnc3cc(F)nn3c21` (single isomer, unassigned) [Example 32, N-(5-chloro-6-(2H-1,2,3-triazol-2-yl)pyridin-3-yl)-2-fluoro-8,8-dimethyl-7,8-dihydro-6H-cyclopenta[e]pyrazolo[1,5-a]pyrimidine-6-carboxamide]: not below 1000 nM.
Turning to `Cn1cnc(-c2ncc(NC(=O)[C@@H]3CC(C)(C)c4c3cnc3cc(Cl)nn43)cc2Cl)c1` (single isomer, unassigned) [Example 34, 2-chloro-N-(5-chloro-6-(1-methyl-1H-imidazol-4-yl)pyridin-3-yl)-8,8-dimethyl-7,8-dihydro-6H-cyclopenta[e]pyrazolo[1,5-a]pyrimidine-6-carboxamide], the IC50 in assay [1] is not below 1000 nM.
Still for that read-out and setting: with `C[C@@]1(C(F)(F)F)C[C@@H](C(=O)Nc2cnc(-n3nccn3)c(Cl)c2)c2cnc3cc(Cl)nn3c21` (single isomer, unassigned) [Example 39, 2-chloro-N-(5-chloro-6-(2H-1,2,3-triazol-2-yl)pyridin-3-yl)-8-methyl-8-(trifluoromethyl)-7,8-dihydro-6H-cyclopenta[e]pyrazolo[1,5-a]pyrimidine-6-carboxamide] the figure was 10 to 100 nM.
As to `CC1(C)C[C@H](C(=O)Nc2cnc(-n3nccn3)c(C(F)(F)F)c2)c2cnc3cc(Cl)nn3c21` (single isomer, unassigned) [Example 44, N-(6-(2H-1,2,3-triazol-2-yl)-5˜(trifluoromethyl)pyridin-3-yl)-2-chloro-8,8-dimethyl-7,8-dihydro-6H-cyclopenta[e]pyrazolo[1,5-a]pyrimidine-6-carboxamide], the IC50 was less than 10 nM in assay [2] and 100 to 1000 nM in assay [3].
The corresponding values for `CC1(C)CC(C(=O)Nc2cnc(-n3nccn3)c(C(F)F)c2)c2cnc3cc(Cl)nn3c21` (single isomer, unassigned) [Example 47, 2-chloro-N-(5-(difluoromethyl)-6-(2H-1,2,3-triazol-2-yl)pyridin-3-yl)-8,8-dimethyl-7,8-dihydro-6H-cyclopenta[e]pyrazolo[1,5-a]pyrimidine-6-carboxamide] are less than 10 nM and 100 to 1000 nM.
The corresponding values for `C[C@H](O)c1cnn(-c2ncc(NC(=O)[C@H]3CC(C)(C)c4c3cnc3cc(Cl)nn43)cc2Cl)n1` (single isomer, unassigned) [Example 49, 2-chloro-N-(5-chloro-6-(4-(1-hydroxyethyl)-2H-1,2,3-triazol-2-yl)pyridin-3-yl)-8,8-dimethyl-7,8-dihydro-6H-cyclopenta[e]pyrazolo[1,5-a]pyrimidine-6-carboxamide] are less than 10 nM and 100 to 1000 nM.
For `C[C@@H](O)c1cnn(-c2ncc(NC(=O)[C@H]3CC(C)(C)c4c3cnc3cc(Cl)nn43)cc2Cl)n1` (single isomer, unassigned) [Example 51, 2-chloro-N-(5-chloro-6-(4-(1-hydroxyethyl)-2H-1,2,3-triazol-2-yl)pyridin-3-yl)-8,8-dimethyl-7,8-dihydro-6H-cyclopenta[e]pyrazolo[1,5-a]pyrimidine-6-carboxamide], the IC50 in assay [2] is less than 10 nM; in assay [3] it was 100 to 1000 nM.
In assay [1], `CC1(C)CCC(C(=O)Nc2cnc(-n3nccn3)c(Cl)c2)c2cnc3cc(Cl)nn3c21` (stereo not drawn) [Example 7, 2-chloro-N-(5-chloro-6-(2H-1,2,3-triazol-2-yl)pyridin-3-yl)-9,9-dimethyl-6,7,8,9-tetrahydropyrazolo[1,5-a]quinazoline-6-carboxamide] yielded an IC50 of 10 to 100 nM.
In assay [1], `Cc1cc2ncc3c(n2n1)C1(CC1)CC3C(=O)Nc1cnc(-n2nccn2)c(Cl)c1` (stereo not drawn) [Example 18, N-(5-chloro-6-(2H-1,2,3-triazol-2-yl)pyridin-3-yl)-2-methyl-6,7-dihydrospiro[cyclopenta[e]pyrazolo[1,5-a]pyrimidine-8,1′-cyclopropane]-6-carboxamide] showed an IC50 of 100 to 1000 nM.
On to `CC1(C)CC(C(=O)Nc2cnc(-n3nccn3)c(Cl)c2)c2cnc3cc(C(F)(F)F)nn3c21` (stereo not drawn) [Example 40, N-(5-chloro-6-(2H-1,2,3-triazol-2-yl)pyridin-3-yl)-8,8-dimethyl-2-(trifluoromethyl)-7,8-dihydro-6H-cyclopenta[e]pyrazolo[1,5-a]pyrimidine-6-carboxamide], for which the IC50 in assay [1] fell in the range of 10 to 100 nM.
On the same count and under the same terms, the same measure for `CC1(C)CC(C(=O)Nc2cnc(-n3nccn3)c(Cl)c2)c2ccc3cc(O)nn3c21` (stereo not drawn) [Example 41, N-(5-chloro-6-(2H-1,2,3-triazol-2-yl)pyridin-3-yl)-2-hydroxy-8,8-dimethyl-7,8-dihydro-6H-cyclopenta[e]pyrazolo[1,5-a]pyridine-6-carboxamide]: 100 to 1000 nM.
The same measure, in the same setting: the same measure for `Cn1nc(-c2ncc(NC(=O)C3CC(C)(C)c4c3cnc3cc(Cl)nn43)cc2Cl)cc1O` (stereo not drawn) [Example 42, 2-chloro-N-(5-chloro-6-(5-hydroxy-1-methyl-1H-pyrazol-3-yl)pyridin-3-yl)-8,8-dimethyl-7,8-dihydro-6H-cyclopenta[e]pyrazolo[1,5-a]pyrimidine-6-carboxamide]: not below 1000 nM.

For the origin of these results see US12667572B2, “Tricyclic compounds useful in the treatment of cancer, autoimmune and inflammatory disorders” (SCHRÖDINGER, INC., priority 2021, dated 2026).
